# Measurements as given in ChEMBL document CHEMBL3792319, “Synthesis and antitubercular activity of 1,2,4-trisubstitued piperazines” (Bioorg Med Chem Lett, 2016).
# Legend:
# Type in all cases: functional
# [1] = test system: Mycobacterium tuberculosis; experiment: Antitubercular activity against isoniazid-resistant Mycobacterium tuberculosis H37Rv isolate 1 by two-fold serial dilution method
# [2] = test system: Mycobacterium tuberculosis; experiment: Antitubercular activity against rifampicin-resistant Mycobacterium tuberculosis H37Rv isolate 1 by two-fold serial dilution method
# [3] = test system: Mycobacterium tuberculosis; experiment: Antitubercular activity against fluoroquinolone-resistant Mycobacterium tuberculosis H37Rv isolate 1 by two-fold serial dilution method
# [4] = test system: Mycobacterium tuberculosis; experiment: Antitubercular activity against rifampicin-resistant Mycobacterium tuberculosis H37Rv isolate 2 by two-fold serial dilution method
# [5] = test system: Mycobacterium tuberculosis; experiment: Antitubercular activity against isoniazid-resistant Mycobacterium tuberculosis H37Rv isolate 2 by two-fold serial dilution method
Compound,MIC [1] [µM],MIC [2] [µM],MIC [3] [µM],MIC [4] [µM],MIC [5] [µM]
CNC[C@@H](Cc1ccccc1)N1CCN(CCC23CC4CC(CC(C4)C2)C3)[C@H](C(C)C)C1,1.8,14,14,,
CNC[C@@H](Cc1ccccc1)N1CCN(CCC(c2ccccc2)c2ccccc2)CC1,74,172,70,71,27
CNC[C@@H](Cc1ccccc1)N1CCN(CCC23CC4CC(CC(C4)C2)C3)CC1,57,39,38,83,68
CCC(C)[C@@H]1CN([C@@H](CNC)Cc2ccccc2)CCN1CCC12CC3CC(CC(C3)C1)C2 (stereo partly drawn),38,37,28,48,41
